From ChEMBL document CHEMBL4043238, “Discovery of N-substituted 7-azaindoles as Pan-PIM kinase inhibitors - Lead series identification - Part II” (Bioorg Med Chem Lett, 2017)
In brackets after ≈: the same amount, converted by molar mass.

Tests used:
[1] = biological target: Serine/threonine-protein kinase pim-2 (Homo sapiens, UniProt Q9P1W9); assay: Inhibition of PIM2 (unknown origin) assessed as reduction in BAD phosphorylation at Ser112 residues by TR-FRET assay
[2] = biological target: T1, Serine/threonine-protein kinase pim-1 (Homo sapiens, UniProt P11309); assay: Inhibition of PIM1 (unknown origin) assessed as reduction in BAD phosphorylation at Ser112 residues by TR-FRET assay
[3] = biological target: Serine/threonine-protein kinase pim-3 (Homo sapiens, UniProt Q86V86); assay: Inhibition of PIM3 (unknown origin) assessed as reduction in BAD phosphorylation at Ser112 residues by TR-FRET assay
Mus musculus [4] = assay: (§1) Oral bioavailability in mouse at 10 mg/kg administered as single dose; assay type: ADME, organism-based; conditions: in vivo
KG-1 = assay: Antiproliferative activity against human KG1 cells; assay type: functional, cell-based
[5] = Half life in mouse at 10 mg/kg, po administered as single dose; assay type: ADME, organism-based; conditions: in vivo
[6] = AUC (0 to infinity) in mouse at 10 mg/kg, po administered as single dose; assay type: ADME, organism-based; set-up: dose 10 mg/kg, route oral, time infinity; conditions: in vivo
[7] = Permeability from apical to basolateral side in human Caco2/TC7 cells at 5 uM; assay type: ADME, cell-based; conditions: Caco-2, read-out: permeability
[8] = Induction of CYP450 (unknown origin); assay type: ADME; conditions: human
[9] = biological target: T1, Serine/threonine-protein kinase pim-1; assay: Inhibition of PIM1 in human KG1 cells assessed as reduction in BAD phosphorylation; assay type: cell-based
[10] = Half life in mouse at 3 mg/kg, iv administered as single dose; assay type: ADME, organism-based; conditions: in vivo
[11] = Cmax in mouse at 3 mg/kg, iv or 10 mg/kg, po administered as single dose; assay type: ADME, organism-based; conditions: in vivo
[12] = Volume of distribution at steady state in mouse at 3 mg/kg, iv administered as single dose; assay type: ADME, organism-based; conditions: in vivo, read-out: Vdss
[13] = Clearance in human liver microsomes assessed as compound extraction at 5 uM; assay type: ADME, microsome; conditions: read-out: CLH
[14] = biological target: Voltage-gated inwardly rectifying potassium channel KCNH2 (Homo sapiens, UniProt Q12809); assay: Inhibition of human ERG by patch clamp assay
[15] = Thermodynamic solubility of the compound at pH 7.4; assay type: physicochemical; conditions: buffer, read-out: Therm_solubility
[16] = Inhibition of CYP450 (unknown origin); assay type: ADME; conditions: human
[17] = Clearance in mouse at 3 mg/kg, iv administered as single dose; assay type: ADME, organism-based; conditions: in vivo
[18] = Clearance in rat at 3 mg/kg, iv administered as single dose; assay type: ADME, organism-based; conditions: in vivo
[19] = Plasma concentration in SCID mouse xenografted with human KG1 cells at 25 mg/kg, po administered as single dose measured at 24 hrs; assay type: ADME, organism-based
Cytochrome P450 3A4 [20] = biological target: T2, Cytochrome P450 3A4 (Homo sapiens, UniProt P08684); assay: Inhibition of CYP3A4 (unknown origin) using midazolam as substrate; assay type: ADME
Mus musculus [21] = assay: In vivo inhibition of PIM1 in SCID mouse xenografted with human KG1 cells assessed as reduction in BAD phosphorylation at 25 mg/kg, po administered as single dose measured at 24 hrs relative to control; assay type: functional; conditions: KG-1, po
Mus musculus [22] = assay: In vivo inhibition of PIM1 in SCID mouse xenografted with human KG1 cells assessed as reduction in BAD phosphorylation at 25 mg/kg, po administered as single dose measured at 8 hrs relative to control; assay type: functional; conditions: KG-1, po
[23] = Volume of distribution at steady state in rat at 3 mg/kg, iv administered as single dose; assay type: ADME, organism-based; conditions: in vivo, read-out: Vdss
[24] = Drug uptake in tumor of SCID mouse xenografted with human KG1 cells at 25 mg/kg, po administered as single dose measured at 24 hrs; assay type: ADME, organism-based, Neoplasm; conditions: read-out: Drug uptake
Liver [25] = assay: Stability in mouse liver microsomes; assay type: ADME, microsome
[26] = Protein binding in rat plasma; assay type: ADME, cell-free; conditions: read-out: PPB
[27] = Protein binding in mouse plasma; assay type: ADME, cell-free; conditions: read-out: PPB
[28] = AUC (0 to infinity) in rat at 10 mg/kg, po administered as single dose; assay type: ADME, organism-based; set-up: dose 10 mg/kg, time infinity, route oral; conditions: in vivo
[29] = AUC (0 to infinity) in rat at 3 mg/kg, iv administered as single dose; assay type: ADME, organism-based; set-up: dose 3 mg/kg, route intravenous, time infinity; conditions: in vivo
[30] = Cmax in rat at 10 mg/kg, po administered as single dose; assay type: ADME, organism-based; set-up: dose 10 mg/kg, route oral; conditions: in vivo
[31] = Drug uptake in tumor of SCID mouse xenografted with human KG1 cells at 25 mg/kg, po administered as single dose measured at 8 hrs; assay type: ADME, organism-based, Neoplasm; conditions: read-out: Drug uptake
Liver [32] = assay: Stability in human liver microsomes; assay type: ADME, microsome
[33] = Plasma concentration in SCID mouse xenografted with human KG1 cells at 25 mg/kg, po administered as single dose measured at 8 hrs; assay type: ADME, organism-based
Liver [34] = assay: Stability in rat liver microsomes; assay type: ADME, microsome
[35] = Half life in rat at 3 mg/kg, iv administered as single dose; assay type: ADME, organism-based; conditions: in vivo
[36] = Protein binding in human plasma; assay type: ADME, cell-free; conditions: read-out: PPB
Cytochrome P450 3A4 [37] = biological target: T2, Cytochrome P450 3A4; assay: Inhibition of CYP3A4 (unknown origin) using testosterone as substrate; assay type: ADME
[38] = as §1; assay type: ADME, organism-based; conditions: in vivo
Mus musculus [39] = assay: Clearance in mouse at 3 mg/kg, iv administered as single dose relative to hepatic blood flow; assay type: ADME, organism-based; conditions: in vivo

With `NC(=O)c1cc(Cl)c2c(Cl)c(I)n(C3CCNCC3)c2n1` the IC50 [1] was 28 nM, the IC50 [2] was 2 nM and the IC50 [3] was 4 nM.

For `NC(=O)c1cc(Cl)c2c(Cl)c(I)n(C3CCC(O)CC3)c2n1` (stereo not drawn), the IC50 [1] was 116 nM, the IC50 [2] was 8 nM and the IC50 [3] was 25 nM.

`NCC1CCC(n2c(I)c(Cl)c3c(Cl)cc(C(N)=O)nc32)CC1` (stereo not drawn) showed an IC50 [1] of 9 nM and an IC50 [2] of 3 nM.

`COC/C=C/c1c(Cl)c2c(Cl)cc(C(N)=O)nc2n1C1CCCNC1` (stereo not drawn) showed an IC50 [1] of 57 nM and an IC50 [2] of 8 nM.

`NC(=O)c1cc(Cl)c2c(Cl)c(C3CC3)n(C3CCCNC3)c2n1` (racemic) showed an F (Mus musculus [4]) of 155%, an IC50 (KG-1) of 310 nM and a half-life [5] of 534 min. For the same compound, the AUC(0-inf) [6] was 13700 ng·h/mL, the Papp A→B at 5 µM [7] was 1.9 ×10⁻⁶ cm/s and the Activity [8] was “Not Active”. The IC50 [1] was 13 nM, the IC50 [9] was 115 nM and the half-life [10] was 186 min. For the same compound, the Cmax [11] was 292 ng/mL, the Vd [12] was 4.6 L/kg and the hepatic extraction ratio at 5 µM [13] was 0.02. The IC50 [14] was 2900 nM, the IC50 [2] was 1 nM and the solubility thermodynamic [15] was 0.4 µM (≈ 0.141 µg/mL). For the same compound, the “inhibition (INH)” value [16] was “Not Active” and the clearance [17] was 18.3 mL/min/kg.

In the case of `NC(=O)c1cc(Cl)c2c(Cl)c(C3CC3)n([C@H]3CCCNC3)c2n1`, the clearance [18] is reported as 18.3 mL/min/kg, the concentration at 24 h [19] is reported as 8.21 µM and the IC50 (Cytochrome P450 3A4 [20]) is reported as > 30 µM. It also gave an inhibition in vivo at 25 mg/kg (Mus musculus [21]) of 61%, an inhibition in vivo at 25 mg/kg (Mus musculus [22]) of 60 to 65% and an IC50 (KG-1) of 62 nM. The Vd [23] was 20.9 L/kg, the concentration at 24 h [24] was 99 µM and the Stability (Liver [25]) was 10%. The fraction unbound [26] was 0.01, the fraction unbound [27] was 0.01 and the AUC(0-inf) [28] was 7450 ng·h/mL. It also gave an AUC(0-inf) [29] of 2620 ng·h/mL, a Papp A→B at 5 µM [7] of 3.8 ×10⁻⁶ cm/s and a Cmax [30] of 390 ng/mL. It also gave an IC50 [1] of 6 nM, an IC50 [9] of 43 nM and a concentration at 8 h [31] of 101 µM. For the same compound, the Stability (Liver [32]) was 1%, the concentration at 8 h [33] was 18.9 µM and the Stability (Liver [34]) was 6%. The half-life [35] was 816 min, the fraction unbound [36] was 0.01 and the IC50 [14] was 2900 nM. It also gave an IC50 [2] of 1 nM, an IC50 (Cytochrome P450 3A4 [37]) of 21 µM and a solubility thermodynamic [15] of 225 µM (≈ 79.5 µg/mL).

`CN1CCC(n2c(I)c(Cl)c3c(Cl)cc(C(N)=O)nc32)CC1` gave an IC50 [1] of 34 nM, an IC50 [2] of 2 nM and an IC50 [3] of 6 nM.

In the case of `NC(=O)c1cc(Cl)c2c(Cl)c(C#CC3CC3)n(C3CCCNC3)c2n1` (racemic), the bioavailability [38] is reported as 97%, the IC50 (KG-1) is reported as 167 nM and the CL (Mus musculus [39]) is reported as > 75%. For the same compound, the half-life [5] was 198 min, the AUC(0-inf) [6] was 2500 ng·h/mL and the Papp A→B at 5 µM [7] was 3 ×10⁻⁶ cm/s. The IC50 [1] was 6 nM, the IC50 [9] was 75 nM and the half-life [10] was 156 min. It also gave a Cmax [11] of 958 ng/mL, a Vd [12] of 11 L/kg and a hepatic extraction ratio at 5 µM [13] of 0.21. The IC50 [14] was 1000 nM, the IC50 [2] was 0.7 nM and the solubility thermodynamic [15] was 13 µM (≈ 4.9 µg/mL). The clearance [17] was 65 mL/min/kg.

With `NC(=O)c1cc(Cl)c2c(Cl)c(C3=CCOCC3)n(C3CCCNC3)c2n1` (stereo not drawn) the IC50 [1] was 179 nM and the IC50 [2] was 103 nM.

`NC(=O)c1cc(Cl)c2c(Cl)c(I)n(C3CCCNCC3)c2n1` (racemic) gave an IC50 [1] of 15 nM, an IC50 [2] of 1 nM and an IC50 [3] of 3 nM.

Work on `Cc1c(-c2ccc(N3CCN(C)CC3)cc2)n(C)c2nc(C(N)=O)cc(Cl)c12` yielded an IC50 [1] of 1950 nM and an IC50 [2] of 37 nM.

In the case of `NC(=O)c1cc(Cl)c2c(Cl)c(I)n(Cc3ccncc3)c2n1`, the IC50 [2] is reported as 720 nM and the IC50 [3] is reported as 5620 nM.

`NC(=O)c1cc(Cl)c2c(Cl)c(I)n(C3CN4CCC3CC4)c2n1` (racemic) gave an IC50 [1] of 99 nM, an IC50 [2] of 6 nM and an IC50 [3] of 27 nM.

Work on `NC(=O)c1cc(Cl)c2c(Cl)c(I)n(C3CCCC(O)C3)c2n1` (racemic) yielded an IC50 [1] of 89 nM, an IC50 [2] of 8 nM and an IC50 [3] of 28 nM.

For `Cn1cc(-c2c(Cl)c3c(Cl)cc(C(N)=O)nc3n2C2CCCNC2)cn1` (stereo not drawn), the IC50 [1] was 16 nM and the IC50 [2] was 1 nM.

Work on `NC(=O)c1cc(Cl)c2c(Cl)c(I)n(CC3CCNCC3)c2n1` yielded an IC50 [1] of 99 nM, an IC50 [2] of 4 nM and an IC50 [3] of 12 nM.

In the case of `NC(=O)c1cc(Cl)c2c(Cl)c(I)n(C3CCCNC3)c2n1` (racemic), the bioavailability [38] is reported as 54%, the IC50 (KG-1) is reported as 85 nM and the half-life [5] is reported as 138 min. The AUC(0-inf) [6] was 15000 ng·h/mL, the Papp A→B at 5 µM [7] was 2.6 ×10⁻⁶ cm/s and the IC50 [1] was 6 nM. For the same compound, the IC50 [9] was 47 nM, the half-life [10] was 90 min and the Cmax [11] was 3500 ng/mL. It also gave a Vd [12] of 0.55 L/kg, a hepatic extraction ratio at 5 µM [13] of 0.35 and an IC50 [2] of 1 nM. It also gave a solubility thermodynamic [15] of 42 µM (≈ 18.4 µg/mL), an IC50 [3] of 2 nM and a clearance [17] of 6 mL/min/kg.
